For three molecules, EC50 and IC50 results are on record in ChEMBL document CHEMBL1201862, “PubChem BioAssay data set” (2004).

Active and inactive are the calls of the source.

In test [1] the target is T1, Beta-galactosidase (Escherichia coli, UniProt Q8VNN2). As to the kind of experiment: PubChem AID 485352. The class given is functional.
Test [2] in a line: alpha-synuclein stem-loop luciferase translation blockers – H4 neuroglioma cells, luminescence, confirmation (AID 1988). The class given is functional, cell-based.
Test [3] can be described thus: viability of HCT116 lacking mutant beta-catenin – cell-based, human colon tumor, dose response (AID 1045).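 Also: HCT116 colon tumor cells with beta catenin knocked out; cells exposed to compound for 60 hours.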 The class given is functional.
The target in test [4] is T1, Beta-galactosidase. The class given is functional.
In test [5] the target is T2, Sentrin-specific protease 7 (Homo sapiens, UniProt Q9BQF6).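 Also: Luminescence-based dose-response confirmation of ultra-high-throughput screening hits, measuring inhibition of SENP7.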
T2 sequence (Q9BQF6 whole entry): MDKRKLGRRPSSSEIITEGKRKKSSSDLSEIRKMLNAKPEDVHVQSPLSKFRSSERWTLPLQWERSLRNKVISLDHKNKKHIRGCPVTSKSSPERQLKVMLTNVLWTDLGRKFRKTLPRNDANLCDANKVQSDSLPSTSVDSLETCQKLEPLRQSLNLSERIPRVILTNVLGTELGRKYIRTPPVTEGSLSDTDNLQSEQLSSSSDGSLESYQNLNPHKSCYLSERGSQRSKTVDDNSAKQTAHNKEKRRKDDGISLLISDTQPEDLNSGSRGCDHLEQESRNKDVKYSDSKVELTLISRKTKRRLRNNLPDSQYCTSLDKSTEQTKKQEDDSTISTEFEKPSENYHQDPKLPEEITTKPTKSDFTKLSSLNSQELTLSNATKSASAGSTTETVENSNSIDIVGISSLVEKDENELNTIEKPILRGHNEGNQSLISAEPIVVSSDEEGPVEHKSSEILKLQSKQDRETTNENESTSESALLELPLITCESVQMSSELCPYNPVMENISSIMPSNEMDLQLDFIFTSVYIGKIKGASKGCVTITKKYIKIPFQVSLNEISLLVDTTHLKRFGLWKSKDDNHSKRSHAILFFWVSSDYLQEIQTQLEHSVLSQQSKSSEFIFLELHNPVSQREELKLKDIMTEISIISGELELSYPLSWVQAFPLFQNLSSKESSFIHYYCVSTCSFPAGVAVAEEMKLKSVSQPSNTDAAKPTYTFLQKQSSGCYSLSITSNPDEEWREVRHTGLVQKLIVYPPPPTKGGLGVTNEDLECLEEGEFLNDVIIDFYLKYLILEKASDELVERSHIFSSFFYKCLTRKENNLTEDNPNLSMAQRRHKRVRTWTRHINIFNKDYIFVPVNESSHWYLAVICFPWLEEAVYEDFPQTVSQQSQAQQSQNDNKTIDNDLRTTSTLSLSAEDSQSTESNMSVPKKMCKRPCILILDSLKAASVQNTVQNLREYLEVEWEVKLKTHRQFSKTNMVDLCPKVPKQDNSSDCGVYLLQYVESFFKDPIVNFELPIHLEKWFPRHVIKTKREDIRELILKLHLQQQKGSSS
It counts as functional.

Test [6] has as its target T3, Sentrin-specific protease 8 (Homo sapiens, UniProt Q96LD8).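 Also: luminescence read-out of SENP8 inhibition, dose-response confirmation following an ultra-high-throughput screen.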
T3 sequence (Q96LD8 whole entry): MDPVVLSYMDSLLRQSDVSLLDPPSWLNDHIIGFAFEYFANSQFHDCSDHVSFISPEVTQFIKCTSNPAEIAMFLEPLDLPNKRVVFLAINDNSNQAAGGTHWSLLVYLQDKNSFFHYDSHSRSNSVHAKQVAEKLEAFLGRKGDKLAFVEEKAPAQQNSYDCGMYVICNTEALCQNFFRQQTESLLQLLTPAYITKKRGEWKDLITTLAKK
The class given is functional.

A further test addresses T4, Caspase-3 (Homo sapiens, UniProt P42574).
T4 sequence (P42574 whole entry): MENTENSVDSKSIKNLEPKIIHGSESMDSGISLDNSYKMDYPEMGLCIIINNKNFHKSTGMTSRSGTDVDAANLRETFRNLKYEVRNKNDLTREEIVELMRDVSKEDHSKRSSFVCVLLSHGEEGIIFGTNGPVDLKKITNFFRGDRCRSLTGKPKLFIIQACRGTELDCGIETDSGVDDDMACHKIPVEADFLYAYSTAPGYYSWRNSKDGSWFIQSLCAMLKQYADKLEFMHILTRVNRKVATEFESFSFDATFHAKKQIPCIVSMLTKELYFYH
It counts as functional.

Test [7] concerns the target T5, Sentrin-specific protease 6 (Homo sapiens, UniProt Q9GZR1).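 Also: Luminescence-based dose-response confirmatory assay of SENP6 inhibition, following up an ultra-high-throughput screen.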
T5 sequence (Q9GZR1 whole entry): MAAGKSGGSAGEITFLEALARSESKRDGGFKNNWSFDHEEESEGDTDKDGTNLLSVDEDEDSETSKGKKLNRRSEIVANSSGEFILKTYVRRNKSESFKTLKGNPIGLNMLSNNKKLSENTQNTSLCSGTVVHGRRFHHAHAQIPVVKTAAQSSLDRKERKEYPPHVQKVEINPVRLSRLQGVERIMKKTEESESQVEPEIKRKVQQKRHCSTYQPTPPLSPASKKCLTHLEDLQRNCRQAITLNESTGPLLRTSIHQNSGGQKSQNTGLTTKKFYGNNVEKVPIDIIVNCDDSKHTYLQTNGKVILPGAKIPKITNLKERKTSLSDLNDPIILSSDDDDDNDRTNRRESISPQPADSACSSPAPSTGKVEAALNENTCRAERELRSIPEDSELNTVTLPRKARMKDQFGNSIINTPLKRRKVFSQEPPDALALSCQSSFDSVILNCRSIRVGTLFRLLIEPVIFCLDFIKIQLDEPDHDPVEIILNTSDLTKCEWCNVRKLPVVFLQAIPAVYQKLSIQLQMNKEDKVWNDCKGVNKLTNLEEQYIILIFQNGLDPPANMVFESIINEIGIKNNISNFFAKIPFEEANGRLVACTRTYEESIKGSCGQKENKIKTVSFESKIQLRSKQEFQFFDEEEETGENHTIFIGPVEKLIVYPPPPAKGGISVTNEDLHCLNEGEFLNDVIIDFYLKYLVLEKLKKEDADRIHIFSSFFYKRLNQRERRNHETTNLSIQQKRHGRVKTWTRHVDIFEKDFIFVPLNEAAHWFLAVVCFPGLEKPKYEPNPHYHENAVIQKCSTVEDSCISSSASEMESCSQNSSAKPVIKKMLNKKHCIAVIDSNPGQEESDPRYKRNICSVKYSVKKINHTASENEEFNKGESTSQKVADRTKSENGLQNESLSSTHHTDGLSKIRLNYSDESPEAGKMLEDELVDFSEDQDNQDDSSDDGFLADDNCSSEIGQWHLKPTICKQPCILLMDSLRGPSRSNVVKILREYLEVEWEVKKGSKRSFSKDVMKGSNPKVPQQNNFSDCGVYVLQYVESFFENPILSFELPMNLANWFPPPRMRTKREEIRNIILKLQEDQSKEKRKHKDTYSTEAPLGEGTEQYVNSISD
The class given is functional.

T1 sequence (Q8VNN2 whole entry): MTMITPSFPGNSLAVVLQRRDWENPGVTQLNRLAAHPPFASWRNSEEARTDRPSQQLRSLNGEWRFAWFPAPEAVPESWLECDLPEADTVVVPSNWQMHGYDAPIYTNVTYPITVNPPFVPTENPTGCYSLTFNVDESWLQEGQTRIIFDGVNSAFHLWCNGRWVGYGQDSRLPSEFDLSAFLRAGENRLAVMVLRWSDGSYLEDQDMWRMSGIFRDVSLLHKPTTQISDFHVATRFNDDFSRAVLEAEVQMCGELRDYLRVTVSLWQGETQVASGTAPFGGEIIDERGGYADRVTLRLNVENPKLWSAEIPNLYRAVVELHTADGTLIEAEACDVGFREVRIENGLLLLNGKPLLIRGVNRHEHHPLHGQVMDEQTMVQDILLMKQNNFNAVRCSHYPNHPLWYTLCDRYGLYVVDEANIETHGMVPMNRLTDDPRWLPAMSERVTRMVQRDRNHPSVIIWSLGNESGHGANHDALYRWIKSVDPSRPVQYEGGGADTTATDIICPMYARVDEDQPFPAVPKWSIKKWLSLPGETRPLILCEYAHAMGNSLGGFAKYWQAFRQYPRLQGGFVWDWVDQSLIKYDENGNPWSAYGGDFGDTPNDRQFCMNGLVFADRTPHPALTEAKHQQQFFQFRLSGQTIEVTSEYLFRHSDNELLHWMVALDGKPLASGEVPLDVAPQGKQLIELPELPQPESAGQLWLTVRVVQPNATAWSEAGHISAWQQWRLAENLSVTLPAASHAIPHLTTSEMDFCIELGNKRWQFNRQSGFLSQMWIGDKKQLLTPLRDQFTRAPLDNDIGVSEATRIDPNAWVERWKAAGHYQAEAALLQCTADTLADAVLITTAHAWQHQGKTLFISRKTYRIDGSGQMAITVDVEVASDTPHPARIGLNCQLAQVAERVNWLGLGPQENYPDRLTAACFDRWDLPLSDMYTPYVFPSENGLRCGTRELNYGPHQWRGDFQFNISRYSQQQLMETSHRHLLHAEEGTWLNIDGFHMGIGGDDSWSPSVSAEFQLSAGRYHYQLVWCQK

On to `COc1ccc(NC(=O)/C(Cl)=C(/Cl)[S+]([O-])Cc2ccccc2)cn1` (configuration not stated), for which the EC50 (commonly the concentration needed to bring the measured effect to its halfway point) was > 40 µM (inactive) on Beta-galactosidase [1], 4.57 µM (active) in test [2], 185 nM (active) in test [3] and > 31.5 µM (inactive) at Beta-galactosidase [4].
As to `Nc1ccc(N2CCCCC2)c2nonc12`, the 50% inhibitory concentration (IC50) (as a rule, the concentration that inhibits the measured activity by half) was 17.1 µM (active) in test [5], 10.2 µM (active) in test [6], 36.9 µM (active) at Caspase-3 and 9.43 µM (active) in test [7].
On to `Cc1ccc(S(=O)(=O)/N=C2\C=C(Nc3cccc(C(=O)O)c3)C(=O)c3ccccc32)c(C)c1`, for which the IC50 was 3.3 µM (active) in test [5], 1.78 µM (active) in test [6], 11.2 µM (active) on Caspase-3 and 0.819 µM (active) in test [7].
